Data published in patent EP3827825A1, “USE OF 3, 4-DIARYLPYRAZOLES AS ANTIBACTERIAL AGENTS” (Wageningen Universiteit, priority 2019, dated 2021).
≈ marks a conversion by molar mass, not a printed value. Where two headings read alike, the source gives them in different places.

Experiments:
S. aureus Newman = assay: Minimal inhibitory concentration (MIC), double-dilution in broth, OD600; assay type: cell-based, Staphylococcus aureus Newman; conditions: unit assumed
Description: (§1) In short, a stock solution of 5 mg/mL of HKIs in DMSO was made. This stock was diluted to 50 µg/mL in broth in a 96 well plate. Dilutions were made (factor 2) directly in the plate with a multi-channel pipet. Bacteria cultured in suspension overnight were then added to the plate (except negative control) and the plate was incubated for 24 hours. After 24 hours the OD600 was measured using a spectrophotometer. A positive control (with bacteria, without HKI) was also measured on each plate.
Bacterial strains used in this study for antibacterial susceptibility testing (Table S2) were propagated using standard microbiological procedures. Minimal inhibitory concentrations (MICs) were determined following a standard double-dilution method (42), 73. […] For M. marinum, MICs were determined in Middlebrook 7H9 broth (Difco) and MICs were determined after 3 days incubation at 30 °C.
(§2) Grow the bacterial colonies to be tested from single colonies on an agar plate in LB broth or suitable bacterial growth medium overnight at 37°C. Prepare a 5 mg/mL stock solution of compounds to be tested in DMSO. One 96-well plate per bacterial strain was prepared. First, put 50 uL of medium to each well. Add 48 µL of medium to all wells in row A. Pipet 2 µL of antimicrobial master stock into the top well (row A). Beware, the antimicrobial concentration will be diluted 2x after adding the bacterial culture. Total volume in each well will be 100 µL. In A11, pipet 2 µL of DMSO. Make a serial dilution from row A to row H, pipetting 50 µL from the previous row into the new one. Mix well by pipetting up and down. Discard the last 50 µL so that there is 50 µl in each well In a clean, new plastic pipetting cup, dilute the overnight bacterial culture 100 times. Add 100 µL of bacterial overnight culture to 9900 µL of medium. Mix the suspension well. Once the serial dilutions are complete for all antimicrobial compounds, add 50 µL of diluted overnight bacterial culture to each well (except column 12). Mix by pipetting or put the plate on the shaker. Per 2 plates, close with parafilm around the edges and place in the incubator overnight. After overnight culturing, measure bacterial growth on the SpectraMax. The lowest concentration where no growth is observed is the MIC. To determine the MIB pipette 5 µL from each well of the 96 well plate where now growth was observed on to an LB agar plate, without antimicrobial. Put the plates in the incubator to grow overnight. The minimal concentration where no growth can be seen on the agar plate is the MBC.

S. suis = assay: as above; assay type: cell-based, Streptococcus suis; conditions: unit assumed
Description: as §1, with “each plate. The MICs were not determined in duplo/triplicate in the same experiment, however, the MICs of several HKIs were measured in different experiments and no major differences (max. 1x dilution) were found in the MICs between the experiments.” for “each plate.”
(§3) Bacterial strains used in this study for antibacterial susceptibility testing (Table S2) were propagated using standard microbiological procedures. Minimal inhibitory concentrations (MICs) were determined following a standard double-dilution method (42), 73. MICs were recorded as the lowest concentration of the compound where no visible growth was observed. After plating the dilutions around the MIC or growing them in fresh MH media, minimal bactericidal concentration (MBC) was recorded as the lowest concentration of the compound at which no colonies were formed or no growth was observed, respectively. For M. marinum, MICs were determined in Middlebrook 7H9 broth (Difco) and MICs were determined after 3 days incubation at 30 °C.
as §2

P. multocida = assay: as above; assay type: cell-based, Pasteurella multocida; conditions: unit assumed
Description: as §1, with “each plate. The MICs were not determined in duplo/triplicate in the same experiment, however, the MICs of several HKIs were measured in different experiments and no major differences (max. 1x dilution) were found in the MICs between the experiments.” for “each plate.”
as §3, §2

M. marinum = assay: Minimal inhibitory concentration (MIC), Middlebrook 7H9 broth, 3 days at 30 °C; assay type: cell-based, Mycobacterium marinum; conditions: unit assumed
Description: as §1, with “each plate. The MICs were not determined in duplo/triplicate in the same experiment, however, the MICs of several HKIs were measured in different experiments and no major differences (max. 1x dilution) were found in the MICs between the experiments.” for “each plate.”
as §3, §2

NRK-52E = assay: Cell toxicity, Alamar blue assay, 24 hours exposure; assay type: cell-based; conditions: for IC50: Rattus norvegicus
Description: Toxicity was primarily determined by measuring cytotoxicity with the Alamar blue assay. In short, cells (HEK293, NRK-52E and Caco-2) were plated in 96-well plates and cultured overnight. HKI compounds were diluted to concentrations ranging from 0.39 to 500 µg/mL in serum-free medium and added to the cells.
After exposure, cells were incubated for 24 hours. Experiments were mostly performed by single measurement. […] After 24 hours HKIs were removed from the cells and Alamar blue was added, incubated for 45 minutes and fluorescence was measured on a spectrophotometer. Alamar blue measures the conversion of blue, low fluorescent resazurin into high fluorescent pink resorufin. This conversion can only be made in viable mitochondria in viable cells and therefore this dye provides a measure for cytotoxicity.

E. coli JW5503 = assay type: cell-based, Escherichia coli; conditions: unit assumed
Description: as §1, with “each plate. The MICs were not determined in duplo/triplicate in the same experiment, however, the MICs of several HKIs were measured in different experiments and no major differences (max. 1x dilution) were found in the MICs between the experiments.” for “each plate.”
as §3, §2

E. faecium Van A = assay: Minimal inhibitory concentration (MIC), double-dilution in broth, OD600; assay type: cell-based, Enterococcus faecium; conditions: unit assumed
Description: as §1, with “each plate. The MICs were not determined in duplo/triplicate in the same experiment, however, the MICs of several HKIs were measured in different experiments and no major differences (max. 1x dilution) were found in the MICs between the experiments.” for “each plate.”
as §3, §2

[1] = read-out: IC50 NRK-52E (50 mg/mL stock)

Row | SMILES | MIC S. aureus Newman (S. aureus Newman) [µg/mL] | MIC S. suis (S. suis) [µg/mL] | MIC P. multocida (P. multocida) [µg/mL] | MIC M. marinum (M. marinum) [µg/mL] | IC50 (NRK-52E; [1]) [µg/mL] | MIC E. coli JW5503 (E. coli JW5503) [µg/mL] | MIC E. faecium Van A (E. faecium Van A) [µg/mL] | IC50 NRK-52E (50 mg/mL stock) (NRK-52E; 50 mg/mL stock) | IC50 (NRK-52E; read-out: IC50 NRK-52E (50 mg/mL stock), 50 mg/mL stock) [µg/mL]
1 | COc1ccc(-c2[nH]nc(C(F)(F)F)c2-c2ccc(OC)c(OC)c2)c(O)c1 [May-5, 2-[4-(3,4-dimethoxyphenyl)-5-(trifluoromethyl)-1∼{H}-pyrazol-3-yl]-5-methoxy-phenol] | 25 (≈ 63.4 µM) | 50 (≈ 127 µM) | > 50 | > 50 | 6.11 (≈ 15.5 µM) |  |  |  | 
2 | COc1ccc(-c2c(C(F)(F)F)n[nH]c2-c2ccc(OCc3ccc(F)cc3)cc2O)cc1 [Sep-14, 5-(4-fluorobenzyl)oxy-2-[4-(4-methoxyphenyl)-5-(trifluoromethyl)-1∼{H}-pyrazol-3-yl]phenol] | 12.5 (≈ 27.3 µM) | 25 (≈ 54.5 µM) | > 50 | > 50 | ~16.6 (≈ 36.3 µM) | 25 (≈ 54.5 µM) | 12.5 (≈ 27.3 µM) |  | 
3 | Oc1cc(OCc2c(F)cccc2Cl)ccc1-c1[nH]nc(C(F)(F)F)c1-c1ccc(Cl)cc1 [Sep-11, 5-(2-chloro-6-fluorobenzyl)oxy-2-[4-(4-chlorophenyl)-5-(trifluoromethyl)-1∼{H}-pyrazol-3-yl]phenol] | 3.13 (≈ 6.29 µM) | 12.5 (≈ 25.1 µM) | > 50 | > 50 | 11.8 (≈ 23.8 µM) | > 50 | 6.25 (≈ 12.6 µM) |  | 
4 | COc1ccc(-c2c(-c3ccc(OCc4ccccc4)cc3O)n[nH]c2C(F)(F)F)cc1OC [Sep-28, 5-benzoxy-2-[4-(3,4-dimethoxyphenyl)-5-(trifluoromethyl)-1∼{H}-pyrazol-3-yl]phenol] | 12.5 (≈ 26.6 µM) | > 50 | > 50 | > 50 | ~17.3 (≈ 36.7 µM) | 25 (≈ 53.1 µM) | > 50 |  | 
5 | COc1ccc(-c2c(-c3ccc(OCc4ccc(C)cc4)cc3O)n[nH]c2C(F)(F)F)cc1OC [Sep-27, 2-[4-(3,4-dimethoxyphenyl)-5-(trifluoromethyl)-1∼{H}-pyrazol-3-yl]-5-(4-methylbenzyl)oxy-phenol] | 3.13 (≈ 6.46 µM) | 50 (≈ 103 µM) | > 50 | 50 (≈ 103 µM) | ~17.6 (≈ 36.3 µM) | > 50 | > 50 |  | 
6 | Oc1ccc(-c2n[nH]c(C(F)(F)F)c2-c2ccc(Br)cc2)c(O)c1 [Sep-20, 4-[4-(4-bromophenyl)-5-(trifluoromethyl)-1∼{H}-pyrazol-3-yl]resorcinol] | 6.25 (≈ 15.7 µM) | 25 (≈ 62.6 µM) | > 50 | > 50 |  | 6.25 (≈ 15.7 µM) | 25 (≈ 62.6 µM) | 7.58 | 
7 | COc1ccc(-c2c(-c3ccc(O)cc3O)n[nH]c2C(F)(F)F)cc1 [May-9, 4-[4-(4-methoxyphenyl)-5-(trifluoromethyl)-1∼{H}-pyrazol-3-yl]resorcinol] | 12.5 (≈ 35.7 µM) | 12.5 (≈ 35.7 µM) | 50 (≈ 143 µM) | > 50 | ~3.15 (≈ 8.99 µM) | 3.13 (≈ 8.94 µM) | 25 (≈ 71.4 µM) |  | 
8 | COc1ccccc1-c1c(-c2ccc(O)cc2O)n[nH]c1C(F)(F)F [May-13, 4-[4-(2-methoxyphenyl)-5-(trifluoromethyl)-1∼{H}-pyrazol-3-yl]resorcinol] | 25 (≈ 71.4 µM) | 25 (≈ 71.4 µM) | 50 (≈ 143 µM) | > 50 | 8.06 (≈ 23 µM) |  | 50 (≈ 143 µM) |  | 
9 | COc1ccc(-c2c(C(F)(F)F)n[nH]c2-c2ccc(O)cc2O)cc1OC [May-2, 4-[4-(3,4-dimethoxyphenyl)-5-(trifluoromethyl)-1∼{H}-pyrazol-3-yl]resorcinol] | 50 (≈ 131 µM) | 50 (≈ 131 µM) | > 50 | > 50 | 13.9 (≈ 36.6 µM) |  | 50 (≈ 131 µM) |  | 
10 | O=[N+]([O-])c1ccc(COc2ccc(-c3[nH]nc(C(F)(F)F)c3-c3ccc(Cl)cc3)c(O)c2)cc1 [Sep-12, 2-[4-(4-chlorophenyl)-5-(trifluoromethyl)-1∼{H}-pyrazol-3-yl]-5-(4-nitrobenzyl)oxyphenol] | 3.13 (≈ 6.39 µM) | 12.5 (≈ 25.5 µM) | > 50 | 50 (≈ 102 µM) | 14.7 (≈ 30.1 µM) | > 50 | 12.5 (≈ 25.5 µM) |  | 
11 | COc1ccc(-c2c(-c3ccc(OC)cc3O)n[nH]c2C(F)(F)F)cc1 [May-8] | 12.5 (≈ 34.3 µM) | 12.5 (≈ 34.3 µM) | > 50 | 50 (≈ 137 µM) | 2.64 (≈ 7.25 µM) | 3.13 (≈ 8.59 µM) |  |  | 
12 | COc1ccccc1-c1c(-c2ccc(OCC(=O)NN)cc2O)n[nH]c1C(F)(F)F [Sep-26, 2-[3-hydroxy-4-[4-(2-methoxyphenyl)-5-(trifluoromethyl)-1∼{H}-pyrazol-3-yl]phenoxy]acetohy drazide] | > 50 | > 50 | > 50 | > 50 |  |  | 25 (≈ 59.2 µM) |  | 194 (≈ 461 µM)
13 | COc1ccc(-c2n[nH]c(C)c2-c2ccc(Cl)cc2)c(O)c1 [Sep-21, 2-[4-(4-chlorophenyl)-5-methyl-1∼{H}-pyrazol-3-yl]-5-methoxy-phenol] | 50 (≈ 159 µM) | > 50 | > 50 | 50 (≈ 159 µM) | 18.2 (≈ 57.9 µM) |  | 50 (≈ 159 µM) |  | 
14 | Oc1ccc(-c2[nH]nc(C(F)(F)F)c2-c2ccccc2)c(O)c1 [May-10, 4-[4-phenyl-5-(trifluoromethyl)-1∼{H}-pyrazol-3-yl]resorcinol] | 6.25 (≈ 19.5 µM) | 12.5 (≈ 39 µM) | 25 (≈ 78.1 µM) | 50 (≈ 156 µM) | ~3.61 (≈ 11.3 µM) |  | 12.5 (≈ 39 µM) |  | 
